In this assay the target is Oxoeicosanoid receptor 1 (Homo sapiens, UniProt Q8TDS5). In words: Antagonist activity at OXE receptor in human neutrophils assessed as inhibition of calcium mobilization by fluorescence assay. Type of assay: functional.
Chain of Oxoeicosanoid receptor 1 (Q8TDS5 whole entry): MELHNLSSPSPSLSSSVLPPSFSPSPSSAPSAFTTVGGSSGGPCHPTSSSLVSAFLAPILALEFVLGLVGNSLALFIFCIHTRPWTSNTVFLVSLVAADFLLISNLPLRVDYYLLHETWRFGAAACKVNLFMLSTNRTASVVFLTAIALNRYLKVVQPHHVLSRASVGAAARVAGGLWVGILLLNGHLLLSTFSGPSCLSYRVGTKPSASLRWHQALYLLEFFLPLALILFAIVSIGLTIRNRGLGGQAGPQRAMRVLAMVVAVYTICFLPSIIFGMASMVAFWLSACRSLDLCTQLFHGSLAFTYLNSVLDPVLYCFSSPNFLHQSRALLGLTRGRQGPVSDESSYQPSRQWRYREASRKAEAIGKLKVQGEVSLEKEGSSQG

As usually defined, the IC50 is the midpoint of a concentration-inhibition curve. In the case of `CCCCCCc1c(C(=O)C[C@H](C)CC(=O)O)c2cc(Cl)ccc2n1C`, the IC50 stood at 6 nM. For `CCCCCCc1c(C(=O)C[C@@H](C)CC(=O)O)c2cc(Cl)ccc2n1C` the value was 2.7 nM.

Source of the values: ChEMBL document CHEMBL3352521, “Two Potent OXE-R Antagonists: Assignment of Stereochemistry” (ACS Med Chem Lett, 2014).
